Among the data in patent US8202870B2, “Substituted oxindole derivatives, medicaments containing the latter and use thereof” (Abbott GmbH & Co. KG, priority 2005, dated 2012) are Ki values, retold here.

As usually defined, the Ki is a dissociation constant, usually derived from enzyme kinetics or from competition with a known ligand.

Like-named read-outs stand apart in the source and are kept apart here.

The assay addresses T1, human V1b receptors (Homo sapiens, UniProt P47901).
T1 construct: expressed in transfected cells; preparation V1b-3H2
T1 sequence (P47901 1-424): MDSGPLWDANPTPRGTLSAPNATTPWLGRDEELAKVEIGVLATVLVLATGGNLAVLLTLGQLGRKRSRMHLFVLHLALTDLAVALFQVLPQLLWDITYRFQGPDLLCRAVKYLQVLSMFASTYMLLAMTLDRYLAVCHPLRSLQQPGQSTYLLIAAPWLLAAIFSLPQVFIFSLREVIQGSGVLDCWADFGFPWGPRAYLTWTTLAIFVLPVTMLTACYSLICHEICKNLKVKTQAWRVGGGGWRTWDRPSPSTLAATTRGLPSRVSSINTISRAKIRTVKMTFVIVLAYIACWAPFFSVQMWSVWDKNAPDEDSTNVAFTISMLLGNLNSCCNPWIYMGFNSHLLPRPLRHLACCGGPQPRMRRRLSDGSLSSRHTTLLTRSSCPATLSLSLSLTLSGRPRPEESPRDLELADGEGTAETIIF
Put plainly: Vasopressin V1b receptor binding assay. The procedure: Vasopressin V1b Receptor Binding Assay:
This DMSO predilution series was diluted 1:10 with assay buffer. The substance concentration was further diluted 1:10 in the assay mixture.
The nonspecific binding was determined with 10^−6 M AVP. Determinations in triplicate were carried out.
The affinities for the human vasopressin V1b receptor were measured, and affinity constants determined, in the above assay for the inventive examples.
The affinities of the compounds (I) of the invention for the human vasopressin V1b receptor were measured in accordance with the above assays, and the affinity constants. (Ki) were determined. Table 1 below details the V1b receptor affinity of selected compounds (++ means <50 nM and + means 50-500 nM).

Setting [1] is: membranes from CHO-K1 cells with human V1b receptors, 3H-AVP displacement, read-out: V1b Ki.
[2] abbreviates: read-out: Ki values, affinity for the vasopressin V1b receptor.

For `CCOc1ccccc1C1(OC(=O)N2CCN(c3nccs3)CC2)C(=O)N(S(=O)(=O)c2cccc3cccnc23)c2ccc(C#N)cc21` (stereo not drawn) [Example 1, 5-Cyano-3-(2-ethoxyphenyl)-2-oxo-1-(quinoline-8-sulfonyl)-2,3-dihydro-1H-indol-3-yl 4-(thiazol-2-yl)piperazine-1-carboxylate], the Ki under setting [1] is less than 0.05 µM and the Ki under setting [2] was less than 0.1 µM.

For `CCOc1ccccc1C1(NC(=O)N2CCN(c3ccncc3)CC2)C(=O)N(S(=O)(=O)c2cccc3cccnc23)c2ccc(C#N)cc21` (stereo not drawn) [Example 2, 4-(Pyridin-4-yl)piperazin-1-[5-cyano-3-(2-ethoxyphenyl)-2-oxo-1-(quinoline-8-sulfonyl)-2,3-dihydro-1H-indol-3-yl]carboxamide], the Ki reads like this: under setting [1], less than 0.05 µM; under setting [2], less than 0.1 µM.

As to `CCOc1ccccc1C1(NC(=O)N2CCN(c3ccncc3)CC2)C(=O)N(S(=O)(=O)c2ccsc2)c2ccc(C#N)cc21` (stereo not drawn) [Example 3, 4-(Pyridin-4-yl)piperazin-1-[5-cyano-3-(2-ethoxyphenyl)-2-oxo-1-(thien-3-yl-sulfonyl)-2,3-dihydro-1H-indol-3-yl]carboxamide], the Ki under setting [1] was less than 0.05 µM and the Ki under setting [2] was less than 0.1 µM.

Turning to `CCOc1ccccc1C1(OC(=O)N2CCN(c3ccncc3)CC2)C(=O)N(S(=O)(=O)c2ccsc2)c2ccc(C#N)cc21` (stereo not drawn) [Example 4, 5-Cyano-3-(2-ethoxyphenyl)-2-oxo-1-(thien-3-ylsulfonyl)-2,3-dihydro-1H-indol-3-yl 4-(pyridin-4-yl)piperazine-1-carboxylate], the Ki under setting [1] was less than 0.05 µM and the Ki under setting [2] is less than 0.1 µM.

Turning to `CCOc1ccccc1C1(OC(=O)N2CCN(c3ccccn3)CC2)C(=O)N(S(=O)(=O)c2cccc3cccnc23)c2ccc(C#N)cc21` (stereo not drawn) [Example 5, 5-Cyano-3-(2-ethoxyphenyl)-2-oxo-1-(quinoline-8-sulfonyl)-2,3-dihydro-1H-indol-3-yl 4-(pyridin-2-yl)piperazine-1-carboxylate], the Ki runs as follows: under setting [1], less than 0.05 µM; under setting [2], less than 0.1 µM.

In the case of `CCOc1ccccc1C1(OC(=O)N2CCN(c3ncccn3)CC2)C(=O)N(S(=O)(=O)c2cccc3cccnc23)c2ccc(C#N)cc21` (stereo not drawn) [Example 6, 5-Cyano-3-(2-ethoxyphenyl)-2-oxo-1-(quinoline-8-sulfonyl)-2,3-dihydro-1H-indol-3-yl 4-(pyrimidin-2-yl)piperazine-1-carboxylate], the Ki is less than 0.05 µM under setting [1] and less than 0.1 µM under setting [2].

For the compound `CCOc1ccccc1C1(OC(=O)N2CCN(c3cnccn3)CC2)C(=O)N(S(=O)(=O)c2cccc3cccnc23)c2ccc(C#N)cc21` (stereo not drawn) [Example 7, 5-Cyano-3-(2-ethoxyphenyl)-2-oxo-1-(quinoline-8-sulfonyl)-2,3-dihydro-1H-indol-3-yl 4-(pyrazin-2-yl)piperazine-1-carboxylate], the Ki is, setting by setting: under setting [1], 0.05 to 0.5 µM; under setting [2], less than 0.1 µM.

As for `CCOc1ccccc1C1(OC(=O)N2CCN(c3nccs3)CC2)C(=O)N(S(=O)(=O)c2ccsc2)c2ccc(C#N)cc21` (stereo not drawn) [Example 8, 5-Cyano-3-(2-ethoxyphenyl)-2-oxo-1-(thien-3-ylsulfonyl)-2,3-dihydro-1H-indol-3-yl 4-(thiazol-2-yl)piperazine-1-carboxylate], the Ki under setting [1] was in the range of 0.05 to 0.5 µM.

As to `CCOc1ccccc1C1(NC(=O)N2CCN(c3ccc(C#N)cn3)CC2)C(=O)N(S(=O)(=O)c2ccsc2)c2ccc(C#N)cc21` (stereo not drawn) [Example 10, 4-(5-Cyanopyridin-2-yl)piperazine-1-[5-cyano-3-(2-ethoxyphenyl)-2-oxo-1-(thien-3-ylsulfonyl)-2,3-dihydro-1H-indol-3-yl]carboxamide], the Ki was 0.05 to 0.5 µM under setting [1] and less than 0.1 µM under setting [2].

Regarding `CCOc1ccccc1C1(OC(=O)N2CCN(c3ccc(C#N)cn3)CC2)C(=O)N(S(=O)(=O)c2cccc3cccnc23)c2ccc(C#N)cc21` (stereo not drawn) [Example 11, 5-Cyano-3-(2-ethoxyphenyl)-2-oxo-1-(quinoline-8-sulfonyl)-2,3-dihydro-1H-indol-3-yl 4-(5-cyanopyridin-2-yl)piperazine-1-carboxylate], the Ki by setting is: under setting [1], less than 0.05 µM; under setting [2], less than 0.1 µM.

With `CCOc1ccccc1C1(OC(=O)N2CCN(c3ccncc3)CC2)C(=O)N(S(=O)(=O)c2cccc3cccnc23)c2ccc(C#N)cc21` (stereo not drawn) [Example 12, 5-Cyano-3-(2-ethoxyphenyl)-2-oxo-1-(quinoline-8-sulfonyl)-2,3-dihydro-1H-indol-3-yl 4-(pyridin-4-yl)piperazine-1-carboxylate], the Ki is less than 0.05 µM under setting [1] and less than 0.1 µM under setting [2].
